From patent publication US4031077A, “Antibacterial 3-phosphono penams” (priority 1976, dated 1977)
Values joined by “and” are separate entries in the source; they are usually repeats but may differ in a detail not shown here. Equal entries are not always repeated. Structures can show the parent of a compound that is named as a salt. Where two headings read alike, the source gives them in different places.

Tests used:
[1] = test system: Staph. aureus; type: cell-based, Staphlococcus aureus
[2] = test system: Strep. zoo.; type: cell-based, Streptococcus zoobacter; details: Strep. zoo. strain 02H001, brain-heart infusion agar, 10^5-10^6 cells, 37° C., anaerobic, sodium salt, Test No. 1-3
[3] = test system: Strep. equi.; test: microbe, parasite or virus in culture; type: cell-based, Streptococcus equis; details: 10^5-10^6 cells, 37° C., anaerobic, sodium salt, Test No. 1-2

Compound | MIC (minimal inhibitory concentration) ([1]; Staph. aureus strain 01A005, brain-heart infusion agar, 10^5-10^6 cells, 37° C., anaerobic, sodium salt, Test No. 1-3) | MIC (minimal inhibitory concentration) ([1]; Staph. aureus strain 01A006, brain-heart infusion agar, 10^5-10^6 cells, 37° C., anaerobic, sodium salt, Test No. 1-3) | MIC (minimal inhibitory concentration) [2] | MIC (minimal inhibitory concentration) ([3]; Strep. equi. strain 02I001, brain-heart infusion agar) | MIC (minimal inhibitory concentration) ([1]; Staph. aureus strain 01A006; brain-heart infusion agar, 10^5-10^6 cells, 37° C., anaerobic; sodium salt; Test No. 1-3) | MIC ([3]; Streptococcus equi, Strep. equi. strain 02I001, brain-heart infusion agar, read-out: MIC (minimal inhibitory concentration))
CC1(C)S[C@@H]2C(NC(=O)COc3ccccc3)C(=O)N2C1P(=O)(O)O.[Na] (stereo partly drawn) [6-(2-Phenoxyacetamido)-2,2-dimethyl-3-phosphonopenam, sodium salt] | > 200 µg/mL | > 200 µg/mL | 100 µg/mL and 200 µg/mL | 100 µg/mL | – | –
COP(=O)(O)C1N2C(=O)C(NC(=O)COc3ccccc3)C2SC1(C)C (stereo not drawn) [6-(2-Phenoxyacetamido)-2,2-dimethyl-3-(0-methylphosphono)penam, sodium salt] | – | – | – | – | 200 µg/mL | 200 µg/mL
